Patent US20190060473A1, “HSP90 INHIBITOR DRUG CONJUGATES” (priority 2016, published 2019)

What was measured:
[1] = Metabolic stability in mouse whole blood (LC-MS/MS); assay type: in vitro ADME; conditions: mouse whole blood, 10 μM, percent of test compound remaining after 1 hour, average of duplicate
Method: Metabolic stability of various HDCs was tested in mouse blood. All compounds were tested at a concentration of 10 μM. The time dependent disappearance of test compound in mouse whole blood, and the release of the compound qualitatively as determined by liquid chromatography tandem mass spectrometry (LC-MS/MS), was tested at time points of 15 minutes, 30 minutes, 45 minutes and 1 hour. All compounds were tested in duplicate, and the average was taken. The results in Table 2 show the percent of test compound remaining after 1 hour.

[2] = system: HER2 expression in BT-474 human breast cancer cells; assay: In-Cell Western assay (ICW) for HER2 expression in BT-474 cells; assay type: cell-based; conditions: BT-474 cells, 24 h incubation, 3-fold serial dilutions, HER2 signal normalized to DRAQ5; read-out: HER2 (ICW)
Method: The HDCs as described herein were used in various experiments to determine their activity and properties, such as binding affinity and stability in blood. An in-Cell Western assay (ICW) for HER2 expression was carried out in BT-474 human breast cancer cells. BT-474 cells were seeded in 96-well plates at a density of 20,000 cells per well. Twenty-four hours after plating, cells were dosed with graded concentrations of HDCs using 3-fold serial dilutions and incubated for 24 h. Growth media containing drug was aspirated off. Cells were then fixed in 4% paraformaldehyde for 20 min and washed three times in 0.1% Triton X-100. After blocking for 1.5 h in Odyssey Blocking Buffer (LI-COR, Lincoln, Nebr., USA), cells were incubated with primary HER2 antibody overnight at 4° C. Wells were washed three times with 0.1% Tween-20 and incubated in secondary antibody (LI-COR, Lincoln, Nebr., USA) and DRAQ5 (CST, Beverly, Mass., USA) for 1 h. Following 3 final washes with 0.1% Tween-20, antibody-antigen complexes were visualized using the Odyssey system. For quantification, HER2 signal was normalized to DRAQ5 flourescent probe.

Hsp90 = assay: Binding affinity (Kd) by standard methods
Method: Finally, binding affinity (Kd) was determined for various HDCs using standard methods.

Row | SMILES | Mouse blood stability 1 h (% remaining) [1] | IC50 [2] | Kd (Hsp90)
1 | CCNC(=O)c1nnc(-c2cc(C(C)C)c(O)cc2O)n1-c1ccc(CN2CCC(C(=O)N3CC(C(=O)OC[C@@H](NC(=O)c4cc(-c5cc(NC(C)C)ncc5Cl)c[nH]4)c4cccc(Cl)c4)C3)CC2)c(F)c1 [SDC-TRAP-0515, (S)-2-(4-(5-chloro-2-(isopropylamino)pyridin-4-yl)-1H-pyrrole-2-carboxamido)-2-(3-chlorophenyl)ethyl 1-(1-(4-(3-(2,4-dihydroxy-5-isopropylphenyl)-5-(ethylcarbamoyl)-4H-1,2,4-triazol-4-yl)-2-fluorobenzyl)piperidine-4-carbonyl)azetidine-3-carboxylate] | 30% | 181 nM | 0.97 nM
2 | CCNC(=O)c1nnc(-c2cc(C(C)C)c(O)cc2O)n1-c1ccc(CN2CCC(C(=O)N3CC[C@H](C(=O)OC[C@@H](NC(=O)c4cc(-c5cc(NC(C)C)ncc5Cl)c[nH]4)c4cccc(Cl)c4)C3)CC2)c(F)c1 [SDC-TRAP-0516, (S)-(S)-2-(4-(5-chloro-2-(isopropylamino)pyridin-4-yl)-1H-pyrrole-2-carboxamido)-2-(3-chlorophenyl)ethyl 1-(1-(4-(3-(2,4-dihydroxy-5-isopropylphenyl)-5-(ethylcarbamoyl)-4H-1,2,4-triazol-4-yl)-2-fluorobenzyl)piperidine-4-carbonyl)pyrrolidine-3-carboxylate] | 55.5% | 123 nM | 1.29 nM
3 | CC(C)Nc1cc(-c2c[nH]c(C(=O)N[C@H](COC(=O)CC3CCN(C(=O)C4CCN(Cc5ccc(-n6c(O)nnc6-c6cc(C(C)C)c(O)cc6O)cc5F)CC4)CC3)c3cccc(Cl)c3)c2)c(Cl)cn1 [SDC-TRAP-0513, (S)-2-(4-(5-chloro-2-(isopropylamino)pyridin-4-yl)-1H-pyrrole-2-carboxamido)-2-(3-chlorophenyl)ethyl 2-(1-(1-(4-(3-(2,4-dihydroxy-5-isopropylphenyl)-5-hydroxy-4H-1,2,4-triazol-4-yl)-2-fluorobenzyl)piperidine-4-carbonyl)piperidin-4-yl)acetate] | 48.2% | 519 nM | 0.88 nM
4 | CC(C)Nc1cc(-c2c[nH]c(C(=O)N[C@H](COC(=O)C3CCN(C(=O)C4CCN(Cc5ccc(-n6c(O)nnc6-c6cc(C(C)C)c(O)cc6O)cc5F)CC4)CC3)c3cccc(Cl)c3)c2)c(Cl)cn1 [SDC-TRAP-0511, (S)-2-(4-(5-chloro-2-(isopropylamino)pyridin-4-yl)-1H-pyrrole-2-carboxamido)-2-(3-chlorophenyl)ethyl 1-(1-(4-(3-(2,4-dihydroxy-5-isopropylphenyl)-5-hydroxy-4H-1,2,4-triazol-4-yl)-2-fluorobenzyl)piperidine-4-carbonyl)piperidine-4-carboxylate] | 30.8% | 465 nM | 2.9 nM
5 | CCNC(=O)c1nnc(-c2cc(C(C)C)c(O)cc2O)n1-c1ccc(C(=O)N(C)[C@@H](C(=O)N[C@H](C(=O)N(C)C([C@@H](C)CC)[C@@H](CC(=O)N2CCC[C@@H]2[C@@H](OC)[C@@H](C)C(=O)N[C@@H](C)[C@H](O)c2ccccc2)OC)C(C)C)C(C)C)cc1 (stereo partly drawn) [SDC-TRAP-0536, 5-(2,4-dihydroxy-5-isopropylphenyl)-N-ethyl-4-(4-(((2R)-1-(((2S)-1-(((3R,5S)-1-((R)-2-((1S,2R)-3-(((1R,2S)-1-hydroxy-1-phenylpropan-2-yl)amino)-1-methoxy-2-methyl-3-oxopropyl)pyrrolidin-1-yl)-3-methoxy-5-methyl-1-oxoheptan-4-yl)(methyl)amino)-3-methyl-1-oxobutan-2-yl)amino)-3-methyl-1-oxobutan-2-yl)(methyl)carbamoyl)phenyl)-4H-1,2,4-triazole-3-carboxamide] | – | – | 0.77 nM
6 | CCNC(=O)c1nnc(-c2cc(C(C)C)c(O)cc2O)n1-c1ccc(CN2CCC(C(=O)N3CCC(C(=O)OC[C@@H](NC(=O)c4cc(-c5cc(NC(C)C)ncc5Cl)c[nH]4)c4cccc(Cl)c4)CC3)CC2)c(F)c1 [SDC-TRAP-0510, (S)-2-(4-(5-chloro-2-(isopropylamino)pyridin-4-yl)-1H-pyrrole-2-carboxamido)-2-(3-chlorophenyl)ethyl 1-(1-(4-(3-(2,4-dihydroxy-5-isopropylphenyl)-5-(ethylcarbamoyl)-4H-1,2,4-triazol-4-yl)-2-fluorobenzyl)piperidine-4-carbonyl)piperidine-4-carboxylate] | 77.1% | 91 nM | 6.14 nM
